# From PubChem BioAssay AID1259407 (Chemical Carcinogenesis Research Information System (CCRIS), 2018)
# Calls of active or inactive are those of the source. The rule behind the calls is not given here.
# Tested on: CCRIS mutagenicity, Ames/micronucleus/aberration tests
# Experiment: CCRIS mutagenicity studies
structure (smiles),measurement,setting,value
Nc1cccc(N)c1,mutagenic call,"End Point: IN VITRO CHROMOSOMAL ABERRATIONS, Test System: CHINESE HAMSTER LUNG CELLS (CHL), Metabolic Activation: RAT, LIVER, S-9, KC-400",active; positive (structural changes)
same,mutagenic call,"End Point: IN VITRO CHROMOSOMAL ABERRATIONS, Test System: CHINESE HAMSTER OVARY CELLS (CHO), Metabolic Activation: NONE",active; positive (structural changes)
same,mutagenic call,"End Point: IN VITRO CHROMOSOMAL ABERRATIONS, Test System: CHINESE HAMSTER OVARY CELLS (CHO), Metabolic Activation: RAT, LIVER, S-9, AROCLOR 1254",inactive; negative
same,mutagenic call,"End Point: IN VITRO CHROMOSOMAL ABERRATIONS, Test System: CHL CELLS, Metabolic Activation: NONE",active; positive (structural changes)
same,mutagenic call,"End Point: IN VITRO CHROMOSOMAL ABERRATIONS, Test System: CHL CELLS, Metabolic Activation: RAT, LIVER, S-9, SODIUM PHENOBARBITAL AND 5,6-BENZOFLAVONE",active; positive (structural changes)
same,mutagenic call,"End Point: IN VITRO CHROMOSOMAL ABERRATIONS, Test System: CHL/IU CELLS, Metabolic Activation: NONE",active; positive (ploidy changes)
same,mutagenic call,"End Point: IN VITRO MICRONUCLEUS, Test System: CHL/IU CELLS, Metabolic Activation: NONE",active; positive
same,mutagenic call,"Test System: AMES SALMONELLA TYPHIMURIUM, Strain/Indicator: TA97, Metabolic Activation: HAMSTER, LIVER, S-9, AROCLOR 1254 (10%), Method: PREINCUBATION",active; positive
same,mutagenic call,"Test System: AMES SALMONELLA TYPHIMURIUM, Strain/Indicator: TA97, Metabolic Activation: NONE, Method: PREINCUBATION",inactive; negative
same,mutagenic call,"Test System: AMES SALMONELLA TYPHIMURIUM, Strain/Indicator: TA97, Metabolic Activation: RAT, LIVER, S-9, AROCLOR 1254 (4 OR 10%), Method: STANDARD PLATE",active; positive
same,mutagenic call,"Test System: AMES SALMONELLA TYPHIMURIUM, Strain/Indicator: TA97, Metabolic Activation: RAT, LIVER, S-9, AROCLOR 1254 (10%), Method: PREINCUBATION",active; positive
same,mutagenic call,"Test System: AMES SALMONELLA TYPHIMURIUM, Strain/Indicator: TA98(1,8-DNP6), Metabolic Activation: TOBACCO, TX1 CELLS, Method: PREINCUBATION",inactive; negative
same,mutagenic call,"Test System: AMES SALMONELLA TYPHIMURIUM, Strain/Indicator: TA98, Metabolic Activation: HAMSTER, LIVER, S-9, AROCLOR 1254 (10%), Method: PREINCUBATION",active; positive
same,mutagenic call,"Test System: AMES SALMONELLA TYPHIMURIUM, Strain/Indicator: TA98, Metabolic Activation: PEA APICAL BUD S-9, Method: PREINCUBATION",active; positive
same,mutagenic call,"Test System: AMES SALMONELLA TYPHIMURIUM, Strain/Indicator: TA98, Metabolic Activation: PEA APICAL BUD S-9, Method: STANDARD PLATE",active; positive
same,mutagenic call,"Test System: AMES SALMONELLA TYPHIMURIUM, Strain/Indicator: TA98, Metabolic Activation: PLANT (PERSEA AMERICANA) S-117, Method: STANDARD PLATE",active; positive
same,mutagenic call,"Test System: AMES SALMONELLA TYPHIMURIUM, Strain/Indicator: TA98, Metabolic Activation: PLANT (ZEA MAYS) S-9, Method: STANDARD PLATE",active; positive
same,mutagenic call,"Test System: AMES SALMONELLA TYPHIMURIUM, Strain/Indicator: TA98, Metabolic Activation: RAT, BLADDER, S-9, PCB, Method: FLUCTUATION TEST",active; positive
same,mutagenic call,"Test System: AMES SALMONELLA TYPHIMURIUM, Strain/Indicator: TA98, Metabolic Activation: RAT, LIVER, S-9, AROCLOR 1254 (10%), Method: PREINCUBATION",active; positive
same,mutagenic call,"Test System: AMES SALMONELLA TYPHIMURIUM, Strain/Indicator: TA98, Metabolic Activation: RAT, LIVER, S-9, AROCLOR 1254, Method: PREINCUBATION",active; positive
same,mutagenic call,"Test System: AMES SALMONELLA TYPHIMURIUM, Strain/Indicator: TA98, Metabolic Activation: RAT, LIVER, S-9, AROCLOR 1254, Method: STANDARD PLATE",active; positive
same,mutagenic call,"Test System: AMES SALMONELLA TYPHIMURIUM, Strain/Indicator: TA98, Metabolic Activation: RAT, LIVER, S-9, PCB, Method: PREINCUBATION",active; positive
same,mutagenic call,"Test System: AMES SALMONELLA TYPHIMURIUM, Strain/Indicator: TA98, Metabolic Activation: RAT, LIVER, S-9, PHENOBARBITAL AND 5,6-BENZOFLAVONE, Method: PREINCUBATION",active; positive
same,mutagenic call,"Test System: AMES SALMONELLA TYPHIMURIUM, Strain/Indicator: TA98, Metabolic Activation: S-9, Method: PREINCUBATION",active; positive
same,mutagenic call,"Test System: AMES SALMONELLA TYPHIMURIUM, Strain/Indicator: TA98, Metabolic Activation: TOBACCO, TX1 CELLS, Method: PREINCUBATION",active; positive
same,mutagenic call,"Test System: AMES SALMONELLA TYPHIMURIUM, Strain/Indicator: TA100, Metabolic Activation: HAMSTER, LIVER, S-9, AROCLOR 1254 (10%), Method: PREINCUBATION",active; positive
same,mutagenic call,"Test System: AMES SALMONELLA TYPHIMURIUM, Strain/Indicator: TA100, Metabolic Activation: NONE, Method: STANDARD PLATE",inactive; negative
same,mutagenic call,"Test System: AMES SALMONELLA TYPHIMURIUM, Strain/Indicator: TA100, Metabolic Activation: PEA APICAL BUD S-9, Method: PREINCUBATION",inactive; negative
same,mutagenic call,"Test System: AMES SALMONELLA TYPHIMURIUM, Strain/Indicator: TA100, Metabolic Activation: PEA APICAL BUD S-9, Method: STANDARD PLATE",inactive; negative
same,mutagenic call,"Test System: AMES SALMONELLA TYPHIMURIUM, Strain/Indicator: TA100, Metabolic Activation: RAT, BLADDER, S-9, PCB, Method: FLUCTUATION TEST",active; positive
same,mutagenic call,"Test System: AMES SALMONELLA TYPHIMURIUM, Strain/Indicator: TA100, Metabolic Activation: RAT, LIVER, S-9, AROCLOR 1254 (10%), Method: PREINCUBATION",active; positive
same,mutagenic call,"Test System: AMES SALMONELLA TYPHIMURIUM, Strain/Indicator: TA100, Metabolic Activation: RAT, LIVER, S-9, AROCLOR 1254, Method: PREINCUBATION",active; positive
same,mutagenic call,"Test System: AMES SALMONELLA TYPHIMURIUM, Strain/Indicator: TA100, Metabolic Activation: RAT, LIVER, S-9, PCB, Method: PREINCUBATION",active; positive
